Data reported in ChEMBL document CHEMBL5543121, “Drug Repurposing of ACT001 to Discover Novel Promising Sulfide Prodrugs with Improved Safety and Potent Activity for Neutrophil-Mediated Antifungal Immunotherapy” (J Med Chem, 2024).
Values belong to the molecule of their own block, whether it stands above or below them. Active and inactive are the calls of the source. The rule behind the calls is not given here.

Experiments:
[1] = Inhibition of fungal curdlan induced PD-L1 expression in mouse neutrophils at 40 uM relative to control; assay type: functional, Neutrophil; settings: Mus musculus, Neutrophil
[2] = (§1) Cytotoxicity against mouse neutrophils assessed as cell viability at 40 uM relative to control; assay type: toxicity, cell-based, Neutrophil; settings: mouse neutrophils, read-out: Activity
Neutrophil [3] = experiment: as §1; assay type: toxicity, cell-based; settings: neutrophil, 40 µM
Candida albicans [4] = experiment: Antifungal activity against candida albicans SC5314 infected in mouse assessed as reduction in fungal burden in kidney at 200 mg/kg, po administered on day 1 and 3; assay type: functional, organism-based; settings: time 1-3 day
Candida albicans [5] = experiment: Antifungal activity against candida albicans SC5314 infected in mouse assessed as reduction in PD-L1 positive Ly6G-positive neutrophils in kidney at 200 mg/kg, po administered on day 1 and 3; assay type: functional, organism-based; settings: time 1-3 day
[6] = Half life in Sprague-Dawley rat; assay type: ADME; settings: in vivo
Neutrophil [7] = experiment: Induction of neutrophil-mediated antifungal immunity against Candida albicans SC5314 infected in mouse assessed as increase in neutrophil infiltration in kidney at 100 mg/kg, po administered once a day for 3 days; assay type: functional, organism-based; settings: time 3.0 day
Candida albicans [8] = experiment: Induction of neutrophil-mediated antifungal immunity against Candida albicans SC5314 infected in mouse assessed as inhibition of CXCL2 protein expression in bone marrow at 100 mg/kg, po administered once a day for 3 days by ELISA; assay type: functional, organism-based; settings: time 3.0 day
[9] = target: Signal transducer and activator of transcription 3 (Mus musculus) (UniProt P42227); experiment: Inhibition of biotinylated ACT001 probe binding to STAT3 in mouse bone marrow neutrophils at 100 uM by pulldown based Western blot analysis; assay type: cell-based; settings: Neutrophil
Signal transducer and activator of transcription 3 (Mus musculus), sequence (P42227 whole entry): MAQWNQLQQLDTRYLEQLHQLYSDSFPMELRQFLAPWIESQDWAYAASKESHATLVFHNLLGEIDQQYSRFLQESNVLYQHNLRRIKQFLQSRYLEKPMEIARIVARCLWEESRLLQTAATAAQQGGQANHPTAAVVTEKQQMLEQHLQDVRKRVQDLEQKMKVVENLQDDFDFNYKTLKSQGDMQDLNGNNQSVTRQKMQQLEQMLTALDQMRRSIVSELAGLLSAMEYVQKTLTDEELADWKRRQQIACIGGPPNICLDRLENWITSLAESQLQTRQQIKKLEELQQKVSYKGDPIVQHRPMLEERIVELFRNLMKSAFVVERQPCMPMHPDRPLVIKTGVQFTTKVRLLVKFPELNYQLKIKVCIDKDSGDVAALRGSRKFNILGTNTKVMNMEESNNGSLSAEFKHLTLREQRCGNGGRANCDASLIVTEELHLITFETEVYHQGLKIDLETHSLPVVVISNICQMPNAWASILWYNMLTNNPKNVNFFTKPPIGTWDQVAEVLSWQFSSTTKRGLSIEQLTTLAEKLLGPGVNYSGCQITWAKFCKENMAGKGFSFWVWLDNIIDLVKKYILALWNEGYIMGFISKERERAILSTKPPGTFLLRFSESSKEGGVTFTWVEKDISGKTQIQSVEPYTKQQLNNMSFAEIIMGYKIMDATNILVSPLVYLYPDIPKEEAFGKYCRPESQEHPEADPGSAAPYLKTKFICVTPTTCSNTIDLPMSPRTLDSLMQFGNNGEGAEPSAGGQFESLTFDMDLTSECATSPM

Candida albicans [10] = experiment: Induction of neutrophil-mediated antifungal immunity against Candida albicans SC5314 infected in mouse assessed as reduction in accumulation of Ly6G positive neutrophils in bone marrow at 100 mg/kg, po administered once a day for 3 days; assay type: functional, organism-based; settings: time 3.0 day
[11] = Inhibition of fungal curdlan induced PD-L1 expression in mouse neutrophils assessed as reduction in PD-L1 positive Ly6G positive neutrophils incubated for 16 hrs by flow cytometry analysis; assay type: functional, cell-based; settings: Neutrophil
[12] = Therapeutic index, ratio of IC50 for cytotoxicity against mouse neutrophils to IC50 for inhibition of fungal curdlan induced PD-L1 expression in mouse neutrophils; assay type: toxicity; settings: read-out: Ratio IC50
[13] = Induction of apoptosis in mouse neutrophils assessed as live cells at 20 uM incubated for 16 hrs by Annexin V-FITC/PI staining based flow cytometry analysis (reference value: 48.5%); assay type: toxicity, cell-based, Neutrophil; settings: read-out: Activity
Neutrophil [14] = experiment: Induction of apoptosis in mouse neutrophils assessed as dead cells at 40 uM incubated for 16 hrs by Annexin V-FITC/PI staining based flow cytometry analysis (reference value: 1.58%); assay type: toxicity, cell-based
[15] = Permeability of compound in PBS/EtOH (70:30) buffer incubated for 12 hrs by PAMPA-BBB assay; assay type: ADME; settings: read-out: permeability
[16] = Induction of apoptosis in mouse neutrophils assessed as live cells at 40 uM incubated for 16 hrs by Annexin V-FITC/PI staining based flow cytometry analysis (reference value: 48.5%); assay type: toxicity, cell-based, Neutrophil; settings: read-out: Activity
Candida albicans [17] = experiment: Induction of neutrophil-mediated antifungal immunity against Candida albicans SC5314 infected in mouse assessed as reduction in fungal clusters in kidney at 100 mg/kg, po administered once a day for 3 days by PAS staining based analysis; assay type: functional, organism-based; settings: time 3.0 day
Candida albicans [18] = experiment: Antifungal activity against Candida albicans SC5314 assessed as inhibition of fungal growth at 0.25 to 128 ug/ml measured every 3 hrs for 24 hrs by absorbance based analysis; assay type: functional, organism-based; settings: dose 0.25-128 µg/ml
Candida albicans [19] = experiment: Induction of neutrophil-mediated antifungal immunity against Candida albicans SC5314 infected in mouse assessed as inhibition of CXCL1 protein expression in bone marrow at 100 mg/kg, po administered once a day for 3 days by ELISA; assay type: functional, organism-based; settings: time 3.0 day
Neutrophil [20] = experiment: Induction of apoptosis in mouse neutrophils assessed as early apoptotic cells at 40 uM incubated for 16 hrs by Annexin V-FITC/PI staining based flow cytometry analysis (reference value: 25.9%); assay type: toxicity, cell-based
Neutrophil [21] = experiment: Induction of apoptosis in mouse neutrophils assessed as dead cells at 20 uM incubated for 16 hrs by Annexin V-FITC/PI staining based flow cytometry analysis (reference value: 1.58%); assay type: toxicity, cell-based
[22] = Cytotoxicity against mouse neutrophils assessed as reduction in cell viability incubated for 16 hrs by flow cytometry analysis; assay type: toxicity, cell-based, Neutrophil
Candida albicans [23] = experiment: Induction of neutrophil-mediated antifungal immunity against Candida albicans SC5314 infected in cyclophosphamide-induced immunosuppressed C57BL/6 mouse at 100 mg/kg, po pretreated with CTX for 3 days followed by fungal infection and further administered with compound once a day for 3 days; assay type: functional, organism-based; settings: time 3.0 day
Neutrophil [24] = experiment: Induction of apoptosis in mouse neutrophils assessed as late apoptotic cells at 20 uM incubated for 16 hrs by Annexin V-FITC/PI staining based flow cytometry analysis (reference value: 24.1%); assay type: toxicity, cell-based
Candida albicans [25] = experiment: Induction of neutrophil-mediated antifungal immunity against Candida albicans SC5314 infected in mouse assessed as reduction in PD-L1 positive Ly6G positive neutrophils in kidney at 100 mg/kg, po administered once a day for 3 days by flow cytometry analysis; assay type: functional, organism-based; settings: time 3.0 day
Neutrophil [26] = experiment: Induction of apoptosis in mouse neutrophils assessed as early apoptotic cells at 20 uM incubated for 16 hrs by Annexin V-FITC/PI staining based flow cytometry analysis (reference value: 25.9%); assay type: toxicity, cell-based
[27] = Oral bioavailability in Sprague-Dawley rat; assay type: ADME, organism-based; settings: in vivo
Candida albicans [28] = experiment: Induction of neutrophil-mediated antifungal immunity against Candida albicans SC5314 infected in mouse assessed as increase in animal survival rate at 100 mg/kg, po administered once a day for 3 days; assay type: functional, organism-based; settings: time 3.0 day
Candida albicans [29] = experiment: Induction of neutrophil-mediated antifungal immunity against Candida albicans SC5314 infected in mouse assessed as reduction in fungal burden in kidneys at 100 mg/kg, po administered once a day for 3 days; assay type: functional, organism-based; settings: time 3.0 day
[30] = AUC (0 to infinity) in Sprague-Dawley rat at 20 mg/kg, iv; assay type: ADME, organism-based; settings: in vivo
Neutrophil [31] = experiment: Induction of apoptosis in mouse neutrophils assessed as late apoptotic cells at 40 uM incubated for 16 hrs by Annexin V-FITC/PI staining based flow cytometry analysis (reference value: 24.1%); assay type: toxicity, cell-based
Candida albicans [32] = experiment: Induction of neutrophil-mediated antifungal immunity against Candida albicans SC5314 infected in mouse assessed as reduction in PD-L1 positive Ly6G positive neutrophils in bone marrow at 100 mg/kg, po administered once a day for 3 days by flow cytometry analysis; assay type: functional, organism-based; settings: time 3.0 day

SMILES: CC1=C2CC[C@@](C)(O)[C@@H]2[C@H]2OC(=O)[C@@H](CSCCC(C)C)[C@@H]2CC1
inhibition at 40 µM [1]: 25.2%
viability at 40 µM [2]: 101%

SMILES: COc1ccc(SC[C@@H]2C(=O)O[C@H]3[C@H]2CCC(C)=C2CC[C@@](C)(O)[C@@H]23)cc1
inhibition at 40 µM [1]: 63.2%
viability at 40 µM [2]: 88.8%

SMILES: CC1=C2CC[C@@](C)(O)[C@@H]2[C@H]2OC(=O)[C@@H](CSC3CCCCC3)[C@@H]2CC1
inhibition at 40 µM [1]: 15.8%
viability at 40 µM [2]: 101%

SMILES: CC1=C2CC[C@@](C)(O)[C@@H]2[C@H]2OC(=O)[C@@H](C)[C@@H]2CC1
inhibition at 40 µM [1]: 17.3%
viability at 40 µM [2]: 98.6%

SMILES: CC1=C2CC[C@@](C)(O)[C@@H]2[C@H]2OC(=O)[C@@H](C[S+]([O-])c3ccc(Cl)cc3Cl)[C@@H]2CC1 (stereo in doubt; 22a)
inhibition at 40 µM [1]: 64.8%
Activity (Neutrophil [3]): 74.28%

SMILES: Cc1ccc(S(=O)(=O)C[C@@H]2C(=O)O[C@H]3[C@H]2CC[C@]2(C)O[C@@]24CC[C@@](C)(O)[C@H]34)cc1
Activity (Candida albicans [4]): Active
inhibition at 40 µM [1]: 82%
Activity (Candida albicans [5]): Active
viability at 40 µM [2]: 71.5%

SMILES: CC1=C2CC[C@@](C)(O)[C@@H]2[C@H]2OC(=O)[C@@H](CSc3ccc(Cl)c(Cl)c3)[C@@H]2CC1
inhibition at 40 µM [1]: 71.1%
viability at 40 µM [2]: 86.6%

SMILES: CC(C)CCS(=O)(=O)C[C@@H]1C(=O)O[C@H]2[C@H]1CC[C@]1(C)O[C@@]13CC[C@@](C)(O)[C@H]23
inhibition at 40 µM [1]: 60.9%
viability at 40 µM [2]: 68.7%

SMILES: COc1ccc(S(=O)(=O)C[C@@H]2C(=O)O[C@H]3[C@H]2CC[C@]2(C)O[C@@]24CC[C@@](C)(O)[C@H]34)cc1
inhibition at 40 µM [1]: 77.4%
viability at 40 µM [2]: 54.8%

SMILES: CC1=C2CC[C@@](C)(O)[C@@H]2[C@H]2OC(=O)[C@@H](CS(=O)(=O)C3CCCCC3)[C@@H]2CC1
inhibition at 40 µM [1]: 49.5%
viability at 40 µM [2]: 66.3%

half-life [6]: 67.2 min
inhibition [9]: Active
IC50 [11]: 16.8 µM
Papp at 12 h [15]: 4.7 ×10⁻⁶ cm/s
bioavailability [27]: 50.8%
AUC(0-inf) [30]: 5540 ng·h/mL
SMILES: CC1=C2CC[C@@](C)(O)[C@@H]2[C@H]2OC(=O)[C@@H](CN(C)C)[C@@H]2CC1 [ACT-001]
Activity (Neutrophil [7]): Active
Activity (Candida albicans [8]): Active
Activity (Candida albicans [10]): Active
selectivity ratio [12]: 1.7
viability at 16 h, 20 µM [13]: 37.1%
Activity (Neutrophil [14]): 4.28%
viability at 16 h, 40 µM [16]: 26.6%
Activity (Candida albicans [17]): Active
Activity (Candida albicans [18]): inactive
inhibition at 40 µM [1]: 72.8%
Activity (Candida albicans [19]): Active
Activity (Neutrophil [20]): 39.2%
Activity (Neutrophil [21]): 2.62%
IC50 at 16 h [22]: 29.3 µM
Activity (Candida albicans [23]): inactive
Activity (Neutrophil [24]): 25.2%
Activity (Candida albicans [25]): Active
Activity (Neutrophil [26]): 35.1%
Activity (Candida albicans [28]): Active
Activity (Candida albicans [29]): Active
viability at 40 µM [2]: 27.6%
Activity (Neutrophil [31]): 29.9%
Activity (Candida albicans [32]): Active

SMILES: C[C@@]1(O)CC[C@]23O[C@@]2(C)CC[C@@H]2[C@H](OC(=O)[C@H]2CS(=O)(=O)c2ccc(F)cc2)[C@@H]13
inhibition at 40 µM [1]: 82.6%
viability at 40 µM [2]: 50.7%

SMILES: COc1ccc(S(=O)(=O)C[C@@H]2C(=O)O[C@H]3[C@H]2CCC(C)=C2CC[C@@](C)(O)[C@@H]23)cc1
inhibition at 40 µM [1]: 63.5%
viability at 40 µM [2]: 39.5%

SMILES: CC1=C2CC[C@@](C)(O)[C@@H]2[C@H]2OC(=O)[C@@H](CSc3ncccn3)[C@@H]2CC1
inhibition at 40 µM [1]: 49.9%
viability at 40 µM [2]: 60.2%
